ChEMBL document CHEMBL4800730 (2021)

What was measured:
[1] = biological target: ALK tyrosine kinase receptor (Homo sapiens) (UniProt Q9UM73); experiment: ALK SelectScreen Kinase panel (LifeTechnologies); settings: Compound concentration 1.0 uM
[2] = biological target: Rhodopsin kinase GRK7 (Homo sapiens) (UniProt Q8WTQ7); experiment: GRK7 SelectScreen Kinase panel (LifeTechnologies); settings: Compound concentration 1.0 uM
[3] = biological target: MAP kinase-activated protein kinase 2 (Homo sapiens) (UniProt P49137); experiment: MAPKAPK2 SelectScreen Kinase panel (LifeTechnologies); settings: Compound concentration 1.0 uM
[4] = biological target: Ribosomal protein S6 kinase alpha-1 (Homo sapiens) (UniProt Q15418); experiment: RPS6KA1 (RSK1) SelectScreen Kinase panel (LifeTechnologies); settings: Compound concentration 1.0 uM
[5] = biological target: Ribosomal protein S6 kinase alpha-2 (Homo sapiens) (UniProt Q15349); experiment: RPS6KA2 (RSK3) SelectScreen Kinase panel (LifeTechnologies); settings: Compound concentration 1.0 uM
[6] = biological target: Ribosomal protein S6 kinase alpha-4 (Homo sapiens) (UniProt O75676); experiment: RPS6KA4 (MSK2) SelectScreen Kinase panel (LifeTechnologies); settings: Compound concentration 1.0 uM
[7] = biological target: Histamine H4 receptor (Homo sapiens) (UniProt Q9H3N8); settings: Compound concentration 10.0 uM
[8] = biological target: Muscarinic acetylcholine receptor M5 (Homo sapiens) (UniProt P08912); settings: Compound concentration 10.0 uM
[9] = biological target: 3-phosphoinositide-dependent protein kinase 1 (Homo sapiens) (UniProt O15530); experiment: PDK1 Direct SelectScreen Kinase panel (LifeTechnologies); settings: Compound concentration 1.0 uM

Measured: inhibition

Histamine H4 receptor (Homo sapiens), sequence (Q9H3N8 whole entry): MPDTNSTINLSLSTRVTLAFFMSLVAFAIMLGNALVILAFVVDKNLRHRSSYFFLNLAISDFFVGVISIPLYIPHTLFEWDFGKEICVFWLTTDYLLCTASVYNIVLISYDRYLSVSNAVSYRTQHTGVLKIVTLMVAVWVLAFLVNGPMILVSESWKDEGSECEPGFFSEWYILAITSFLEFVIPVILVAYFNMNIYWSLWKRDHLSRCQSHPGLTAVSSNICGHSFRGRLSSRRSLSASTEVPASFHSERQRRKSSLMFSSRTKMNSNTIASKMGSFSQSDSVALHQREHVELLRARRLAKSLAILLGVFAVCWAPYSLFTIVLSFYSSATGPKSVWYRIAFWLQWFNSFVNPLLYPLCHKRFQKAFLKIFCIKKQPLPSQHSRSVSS
MAP kinase-activated protein kinase 2 (Homo sapiens), sequence (P49137 whole entry, looked up): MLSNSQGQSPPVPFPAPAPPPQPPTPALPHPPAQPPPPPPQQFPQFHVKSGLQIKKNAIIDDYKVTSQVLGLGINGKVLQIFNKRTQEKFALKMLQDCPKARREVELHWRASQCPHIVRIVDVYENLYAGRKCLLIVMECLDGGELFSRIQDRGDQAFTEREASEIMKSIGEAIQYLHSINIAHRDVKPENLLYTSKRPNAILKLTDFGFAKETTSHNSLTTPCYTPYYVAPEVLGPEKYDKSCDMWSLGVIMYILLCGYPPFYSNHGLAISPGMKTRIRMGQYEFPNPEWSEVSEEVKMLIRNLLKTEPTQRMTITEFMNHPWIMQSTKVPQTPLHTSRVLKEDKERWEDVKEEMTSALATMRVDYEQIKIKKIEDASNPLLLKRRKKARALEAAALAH
Muscarinic acetylcholine receptor M5 (Homo sapiens), sequence (P08912 whole entry): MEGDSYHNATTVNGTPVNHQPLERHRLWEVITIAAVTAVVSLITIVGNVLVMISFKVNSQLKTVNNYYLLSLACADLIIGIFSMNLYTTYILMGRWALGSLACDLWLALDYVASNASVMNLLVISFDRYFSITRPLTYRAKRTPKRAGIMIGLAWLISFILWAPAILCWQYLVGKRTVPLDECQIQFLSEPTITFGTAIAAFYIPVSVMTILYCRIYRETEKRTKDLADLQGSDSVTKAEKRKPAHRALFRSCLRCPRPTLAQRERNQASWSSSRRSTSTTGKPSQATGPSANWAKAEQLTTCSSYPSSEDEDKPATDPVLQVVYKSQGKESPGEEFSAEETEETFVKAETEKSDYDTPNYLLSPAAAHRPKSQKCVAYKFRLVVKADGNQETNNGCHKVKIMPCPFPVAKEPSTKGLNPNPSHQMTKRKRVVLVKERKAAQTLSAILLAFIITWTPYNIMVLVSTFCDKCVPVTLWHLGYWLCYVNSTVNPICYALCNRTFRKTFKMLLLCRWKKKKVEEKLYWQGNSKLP
3-phosphoinositide-dependent protein kinase 1 (Homo sapiens), sequence (O15530 whole entry, looked up): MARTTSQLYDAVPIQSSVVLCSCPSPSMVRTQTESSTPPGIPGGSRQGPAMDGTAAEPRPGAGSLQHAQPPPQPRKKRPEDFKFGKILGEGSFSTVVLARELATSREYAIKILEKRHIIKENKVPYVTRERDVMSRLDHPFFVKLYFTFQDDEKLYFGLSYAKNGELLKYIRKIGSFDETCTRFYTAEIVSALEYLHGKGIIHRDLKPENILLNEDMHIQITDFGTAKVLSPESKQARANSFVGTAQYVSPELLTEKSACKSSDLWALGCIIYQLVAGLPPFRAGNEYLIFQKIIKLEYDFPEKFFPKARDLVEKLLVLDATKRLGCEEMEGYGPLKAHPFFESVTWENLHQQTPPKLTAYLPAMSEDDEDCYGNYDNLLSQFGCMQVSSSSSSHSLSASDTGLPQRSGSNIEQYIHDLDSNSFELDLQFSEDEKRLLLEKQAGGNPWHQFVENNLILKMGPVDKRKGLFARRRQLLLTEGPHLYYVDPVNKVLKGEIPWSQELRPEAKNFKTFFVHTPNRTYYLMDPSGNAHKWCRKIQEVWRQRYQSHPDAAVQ
Ribosomal protein S6 kinase alpha-1 (Homo sapiens), sequence (Q15418 whole entry): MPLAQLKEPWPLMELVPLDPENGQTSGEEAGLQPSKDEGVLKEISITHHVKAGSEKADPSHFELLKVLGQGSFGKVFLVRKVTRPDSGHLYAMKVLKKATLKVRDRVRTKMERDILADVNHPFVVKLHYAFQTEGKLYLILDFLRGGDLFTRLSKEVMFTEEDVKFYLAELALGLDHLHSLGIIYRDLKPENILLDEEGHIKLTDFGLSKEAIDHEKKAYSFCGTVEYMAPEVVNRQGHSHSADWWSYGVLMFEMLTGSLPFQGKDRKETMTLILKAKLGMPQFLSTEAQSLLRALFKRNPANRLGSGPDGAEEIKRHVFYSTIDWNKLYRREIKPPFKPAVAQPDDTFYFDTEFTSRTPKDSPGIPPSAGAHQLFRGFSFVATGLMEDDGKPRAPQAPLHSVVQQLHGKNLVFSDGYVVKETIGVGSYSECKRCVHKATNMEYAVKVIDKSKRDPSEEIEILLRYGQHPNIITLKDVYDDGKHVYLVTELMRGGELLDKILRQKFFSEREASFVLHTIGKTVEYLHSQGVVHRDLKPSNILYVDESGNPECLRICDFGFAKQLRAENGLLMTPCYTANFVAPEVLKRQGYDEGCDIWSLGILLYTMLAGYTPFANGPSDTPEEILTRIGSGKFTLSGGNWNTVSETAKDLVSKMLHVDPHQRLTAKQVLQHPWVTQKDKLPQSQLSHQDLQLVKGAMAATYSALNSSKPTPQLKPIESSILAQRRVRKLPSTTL
ALK tyrosine kinase receptor (Homo sapiens), sequence (Q9UM73 19-1620 limits assumed): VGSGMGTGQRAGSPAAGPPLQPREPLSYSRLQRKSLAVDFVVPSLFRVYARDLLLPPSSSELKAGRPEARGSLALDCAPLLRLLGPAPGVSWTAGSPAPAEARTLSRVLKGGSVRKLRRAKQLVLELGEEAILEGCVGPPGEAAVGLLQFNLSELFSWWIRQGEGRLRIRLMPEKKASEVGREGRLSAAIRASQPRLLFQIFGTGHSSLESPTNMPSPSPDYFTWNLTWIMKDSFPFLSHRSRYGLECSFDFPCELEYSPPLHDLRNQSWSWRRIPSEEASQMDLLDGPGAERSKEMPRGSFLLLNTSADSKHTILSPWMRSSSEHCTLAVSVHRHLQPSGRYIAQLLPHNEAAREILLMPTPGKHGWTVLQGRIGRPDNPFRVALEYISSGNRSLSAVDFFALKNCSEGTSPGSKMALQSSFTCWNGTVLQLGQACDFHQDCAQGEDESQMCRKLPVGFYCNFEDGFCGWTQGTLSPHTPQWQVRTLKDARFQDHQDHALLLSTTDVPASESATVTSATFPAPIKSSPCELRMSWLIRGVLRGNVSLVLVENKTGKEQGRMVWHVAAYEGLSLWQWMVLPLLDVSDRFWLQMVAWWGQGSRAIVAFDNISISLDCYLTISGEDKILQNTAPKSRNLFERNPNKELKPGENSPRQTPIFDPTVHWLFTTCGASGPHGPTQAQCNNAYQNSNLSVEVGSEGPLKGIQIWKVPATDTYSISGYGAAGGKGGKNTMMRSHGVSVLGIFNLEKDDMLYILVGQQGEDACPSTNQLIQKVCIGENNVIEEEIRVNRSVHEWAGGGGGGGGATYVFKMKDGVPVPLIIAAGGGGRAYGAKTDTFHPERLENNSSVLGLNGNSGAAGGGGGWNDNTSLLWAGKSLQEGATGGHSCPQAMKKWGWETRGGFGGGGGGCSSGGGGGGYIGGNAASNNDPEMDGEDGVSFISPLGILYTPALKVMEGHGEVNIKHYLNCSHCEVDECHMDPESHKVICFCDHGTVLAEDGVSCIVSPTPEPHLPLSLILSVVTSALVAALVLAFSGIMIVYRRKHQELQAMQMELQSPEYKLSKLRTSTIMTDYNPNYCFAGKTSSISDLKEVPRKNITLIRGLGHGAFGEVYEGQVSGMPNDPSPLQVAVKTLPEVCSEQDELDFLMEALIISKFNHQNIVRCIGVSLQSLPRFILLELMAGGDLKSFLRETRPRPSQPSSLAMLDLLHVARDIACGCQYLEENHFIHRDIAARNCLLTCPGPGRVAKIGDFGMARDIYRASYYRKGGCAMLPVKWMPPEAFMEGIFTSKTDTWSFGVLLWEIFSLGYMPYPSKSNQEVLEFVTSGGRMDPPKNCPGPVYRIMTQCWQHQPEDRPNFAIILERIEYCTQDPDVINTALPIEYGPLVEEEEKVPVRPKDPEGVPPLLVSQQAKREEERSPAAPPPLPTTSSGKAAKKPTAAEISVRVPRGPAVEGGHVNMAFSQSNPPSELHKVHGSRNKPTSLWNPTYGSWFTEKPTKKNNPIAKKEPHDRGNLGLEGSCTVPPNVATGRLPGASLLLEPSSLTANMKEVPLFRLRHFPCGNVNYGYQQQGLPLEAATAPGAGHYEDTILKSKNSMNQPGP
Ribosomal protein S6 kinase alpha-2 (Homo sapiens), sequence (Q15349 whole entry): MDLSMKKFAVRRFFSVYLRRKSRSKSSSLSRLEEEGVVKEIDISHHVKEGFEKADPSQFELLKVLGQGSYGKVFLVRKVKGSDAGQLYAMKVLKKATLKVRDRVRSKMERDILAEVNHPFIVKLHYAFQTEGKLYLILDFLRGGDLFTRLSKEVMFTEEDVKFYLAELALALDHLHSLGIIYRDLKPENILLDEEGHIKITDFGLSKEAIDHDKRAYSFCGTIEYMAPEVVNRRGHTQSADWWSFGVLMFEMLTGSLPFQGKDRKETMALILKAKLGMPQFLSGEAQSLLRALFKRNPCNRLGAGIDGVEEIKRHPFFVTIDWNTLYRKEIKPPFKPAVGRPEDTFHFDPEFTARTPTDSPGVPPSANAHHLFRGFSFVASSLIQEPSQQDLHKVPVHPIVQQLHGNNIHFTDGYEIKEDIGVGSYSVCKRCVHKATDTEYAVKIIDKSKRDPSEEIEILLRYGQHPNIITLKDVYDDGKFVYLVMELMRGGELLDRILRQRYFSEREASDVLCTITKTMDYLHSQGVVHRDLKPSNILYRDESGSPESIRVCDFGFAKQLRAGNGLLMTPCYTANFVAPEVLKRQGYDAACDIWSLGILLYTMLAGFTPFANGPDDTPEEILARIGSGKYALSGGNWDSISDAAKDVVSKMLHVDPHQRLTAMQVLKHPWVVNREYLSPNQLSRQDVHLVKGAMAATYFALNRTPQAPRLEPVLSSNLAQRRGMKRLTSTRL

C=CC(=O)Nc1ccc2[nH]c(=O)n(C3CCN(Cc4ccc(-c5nc6cc[nH]c(=O)c6cc5-c5ccccc5)cc4)CC3)c2c1 [Borussertib]
inactive: [1] -2% | [2] -6% | [3] 30% | [4] 12% | [5] 14% | [6] 8% | [7] 31.3% | [8] 11.8% | [9] -4%
